ChEMBL document CHEMBL2074076, “Reversal of P-glycoprotein-mediated multidrug resistance by Alisol B 23-acetate” (Biochem Pharmacol, 2004)

Columns and labels:
[1] = molecular target: T1, ATP-dependent translocase ABCB1 (Homo sapiens, UniProt P08183); assay: TP_TRANSPORTER: drug resistance (vinblastine) in HepG2-DR cells; assay type: functional, cell-based
[2] = molecular target: T1, ATP-dependent translocase ABCB1; assay: TP_TRANSPORTER: drug resistance (vinblastine) in K562-DR cells; assay type: functional, cell-based

T1 sequence (P08183 whole entry): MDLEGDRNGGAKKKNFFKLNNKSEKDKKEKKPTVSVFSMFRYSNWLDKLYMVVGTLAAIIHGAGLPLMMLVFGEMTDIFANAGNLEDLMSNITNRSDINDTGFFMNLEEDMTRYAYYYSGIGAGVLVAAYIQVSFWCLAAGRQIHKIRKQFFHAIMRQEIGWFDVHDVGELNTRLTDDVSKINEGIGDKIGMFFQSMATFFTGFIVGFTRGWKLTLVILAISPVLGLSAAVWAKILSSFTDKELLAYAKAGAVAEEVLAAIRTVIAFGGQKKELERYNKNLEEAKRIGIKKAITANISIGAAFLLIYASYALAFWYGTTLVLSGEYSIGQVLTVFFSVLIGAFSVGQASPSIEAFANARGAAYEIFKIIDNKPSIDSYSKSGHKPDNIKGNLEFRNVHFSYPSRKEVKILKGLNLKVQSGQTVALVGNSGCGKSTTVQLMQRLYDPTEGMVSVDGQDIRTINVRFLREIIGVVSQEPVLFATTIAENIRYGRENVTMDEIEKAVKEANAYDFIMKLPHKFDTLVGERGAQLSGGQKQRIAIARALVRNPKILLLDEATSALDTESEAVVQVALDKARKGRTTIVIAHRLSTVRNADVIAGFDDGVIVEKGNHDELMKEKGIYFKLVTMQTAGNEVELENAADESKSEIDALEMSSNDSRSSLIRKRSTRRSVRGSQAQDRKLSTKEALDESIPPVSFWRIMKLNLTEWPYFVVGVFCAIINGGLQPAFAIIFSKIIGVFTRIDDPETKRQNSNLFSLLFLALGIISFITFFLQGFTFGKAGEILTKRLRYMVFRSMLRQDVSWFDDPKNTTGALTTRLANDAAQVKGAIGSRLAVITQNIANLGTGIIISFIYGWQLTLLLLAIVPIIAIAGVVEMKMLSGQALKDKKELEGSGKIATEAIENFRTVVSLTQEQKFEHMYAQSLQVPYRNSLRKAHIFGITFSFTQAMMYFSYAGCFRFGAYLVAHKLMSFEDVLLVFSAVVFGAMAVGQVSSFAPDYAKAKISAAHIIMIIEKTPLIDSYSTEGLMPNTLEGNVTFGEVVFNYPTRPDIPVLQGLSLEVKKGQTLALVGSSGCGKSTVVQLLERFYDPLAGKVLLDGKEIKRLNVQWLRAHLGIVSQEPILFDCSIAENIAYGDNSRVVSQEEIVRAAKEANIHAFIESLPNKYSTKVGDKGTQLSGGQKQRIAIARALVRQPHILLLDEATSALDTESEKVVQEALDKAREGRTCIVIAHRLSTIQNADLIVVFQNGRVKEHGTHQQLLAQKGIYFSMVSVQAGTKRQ

In the case of C[C@H](C[C@](O)(CC(=O)O)C1OC1(C)C)C1=C2C[C@H](O)[C@@H]3[C@H](CCC4C(C)(C)C(=O)CC[C@@]43C)[C@@]2(C)CC1 (some centres not stated), the Activity [1] is reported as “inhibitor [+]” and the Activity [2] is reported as “inhibitor [+]”.
